Active and inactive are the calls of the source.
Columns and labels:
[1] = molecular target: T1, Oxysterols receptor LXR-beta (Homo sapiens, UniProt P55055); format: functional, cell-based
T1 sequence (P55055 whole entry): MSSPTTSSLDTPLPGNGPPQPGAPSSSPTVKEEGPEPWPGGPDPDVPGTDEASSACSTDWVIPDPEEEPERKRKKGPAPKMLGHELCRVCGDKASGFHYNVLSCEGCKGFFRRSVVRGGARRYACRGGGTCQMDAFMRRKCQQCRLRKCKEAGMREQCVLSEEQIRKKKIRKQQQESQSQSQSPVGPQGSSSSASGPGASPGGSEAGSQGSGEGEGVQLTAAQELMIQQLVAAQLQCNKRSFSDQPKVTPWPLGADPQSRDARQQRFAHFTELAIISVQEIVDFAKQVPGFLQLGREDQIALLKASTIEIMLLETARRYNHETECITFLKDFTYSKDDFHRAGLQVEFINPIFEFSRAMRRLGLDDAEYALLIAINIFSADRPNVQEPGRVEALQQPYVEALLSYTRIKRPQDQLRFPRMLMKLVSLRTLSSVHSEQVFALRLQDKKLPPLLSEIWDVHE

P388/ADR = experiment: cells; format: functional; details: Mus musculus
SN12K1 = experiment: cells; format: functional; details: Homo sapiens
Caspase-6 = molecular target: T2, Caspase-6 (Homo sapiens, UniProt P55212); experiment: human caspase-6 inhibitors, dose response, biochemical, VEID-R110 fluorescence, cherry-pick (AID 720632)
T2 sequence (P55212 whole entry): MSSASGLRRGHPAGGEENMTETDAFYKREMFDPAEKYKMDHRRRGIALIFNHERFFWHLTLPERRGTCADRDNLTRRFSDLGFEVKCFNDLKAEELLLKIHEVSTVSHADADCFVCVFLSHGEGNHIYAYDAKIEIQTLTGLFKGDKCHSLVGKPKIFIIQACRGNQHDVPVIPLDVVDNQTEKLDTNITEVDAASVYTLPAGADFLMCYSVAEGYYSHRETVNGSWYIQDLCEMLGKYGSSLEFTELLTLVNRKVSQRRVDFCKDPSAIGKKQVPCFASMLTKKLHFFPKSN

[2] = molecular target: T3, Polyadenylate-binding protein 1 (Homo sapiens, UniProt P11940); experiment: PABP1 MLLE–PAM2 binding inhibitor potency, dose response, biochemical, fluorescence polarization, FITC-PAM2 peptide (AID 602259); format: functional; details: read-out: IC50_Mean
T3 sequence (P11940 whole entry): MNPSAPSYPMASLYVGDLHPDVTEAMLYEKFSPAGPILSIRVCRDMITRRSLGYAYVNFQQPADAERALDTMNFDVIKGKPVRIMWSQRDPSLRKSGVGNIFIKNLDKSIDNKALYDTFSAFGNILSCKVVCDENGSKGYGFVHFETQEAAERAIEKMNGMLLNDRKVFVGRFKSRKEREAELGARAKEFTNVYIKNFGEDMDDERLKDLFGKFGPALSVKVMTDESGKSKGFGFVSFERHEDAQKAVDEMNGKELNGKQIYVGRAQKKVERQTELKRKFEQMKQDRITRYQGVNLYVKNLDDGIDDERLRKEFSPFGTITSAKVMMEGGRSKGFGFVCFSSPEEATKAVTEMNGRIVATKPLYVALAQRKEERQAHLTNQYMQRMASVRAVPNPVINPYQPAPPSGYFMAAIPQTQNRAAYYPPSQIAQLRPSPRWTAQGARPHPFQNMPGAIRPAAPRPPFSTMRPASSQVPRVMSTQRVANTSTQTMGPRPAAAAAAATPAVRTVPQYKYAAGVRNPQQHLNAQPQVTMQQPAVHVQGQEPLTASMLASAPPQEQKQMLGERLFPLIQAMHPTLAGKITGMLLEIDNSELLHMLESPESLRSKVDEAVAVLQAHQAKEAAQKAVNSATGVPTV

[3] = molecular target: T3, Polyadenylate-binding protein 1; experiment: PABP1 MLLE–PAM2 interaction inhibitors, dose response, miRNA deadenylation inhibitor project, biochemical, fluorescence polarization, Cy5-PAM2 peptide, secondary (AID 602260); format: functional; details: read-out: IC50_Mean
P388 = experiment: cells; format: functional; details: Mus musculus
[4] = Luminescence-based cell-based high throughput dose response assay to identify activators of the DAF-12 from the parasite S. stercoralis (ssDAF-12).; format: functional
[5] = molecular target: T1, Oxysterols receptor LXR-beta; experiment: LXR agonists, Gal4 luciferase reporter, dose response, counter-screen for ssDAF-12 agonist project, cell-based, luminescence, HEK293, S. stercoralis campaign (AID 720737); format: functional; details: read-out: IC50 (the source's name)
[6] = molecular target: DNA dC->dU-editing enzyme APOBEC-3G (Homo sapiens, UniProt Q9HC16); experiment: Dose Response confirmation of small molecule APOBEC3G DNA Deaminase Inhibitors via a fluorescence-based single-stranded DNA deaminase assay. [Related pubchem assays (depositor defined):AID493012, AID493028]; format: functional
Chain of DNA dC->dU-editing enzyme APOBEC-3G (Q9HC16 whole entry): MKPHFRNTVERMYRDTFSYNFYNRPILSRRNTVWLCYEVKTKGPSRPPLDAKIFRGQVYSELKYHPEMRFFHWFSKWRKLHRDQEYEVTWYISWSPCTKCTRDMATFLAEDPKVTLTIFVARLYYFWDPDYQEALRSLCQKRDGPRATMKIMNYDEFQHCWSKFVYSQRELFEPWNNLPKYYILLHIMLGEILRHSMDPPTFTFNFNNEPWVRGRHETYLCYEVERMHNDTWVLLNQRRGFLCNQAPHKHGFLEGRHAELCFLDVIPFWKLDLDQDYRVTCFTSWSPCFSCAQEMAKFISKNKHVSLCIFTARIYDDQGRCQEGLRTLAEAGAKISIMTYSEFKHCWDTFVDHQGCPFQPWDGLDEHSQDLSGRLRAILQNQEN

[7] = molecular target: DNA dC->dU-editing enzyme APOBEC-3A (Homo sapiens, UniProt P31941); experiment: APOBEC3A DNA deaminase inhibitors, dose response, biochemical (AID 504722); format: functional
[8] = molecular target: T4, Mannose-6-phosphate isomerase (Homo sapiens, UniProt P34949); experiment: human PMI inhibitors, high substrate, primary screen, biochemical, fluorescence intensity, high mannose 6-phosphate (AID 1220)
T4 sequence (P34949 whole entry): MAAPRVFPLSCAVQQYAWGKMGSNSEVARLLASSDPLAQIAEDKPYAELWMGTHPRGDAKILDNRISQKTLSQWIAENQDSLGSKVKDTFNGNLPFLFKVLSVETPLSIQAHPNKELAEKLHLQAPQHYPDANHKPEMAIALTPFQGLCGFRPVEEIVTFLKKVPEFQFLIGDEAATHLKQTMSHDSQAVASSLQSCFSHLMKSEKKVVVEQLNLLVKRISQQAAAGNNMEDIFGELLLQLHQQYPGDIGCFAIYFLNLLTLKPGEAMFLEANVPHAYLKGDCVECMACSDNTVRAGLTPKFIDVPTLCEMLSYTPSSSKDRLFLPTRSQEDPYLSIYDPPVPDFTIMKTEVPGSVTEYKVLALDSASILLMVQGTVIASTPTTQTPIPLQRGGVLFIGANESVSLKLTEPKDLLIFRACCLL

[9] = molecular target: Eukaryotic translation initiation factor 4E (Mus musculus, UniProt P63073); experiment: eIF4E–eIF4G protein interaction inhibitors, dose response, biochemical, TR-FRET (AID 855); format: functional;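 note: potency for disrupting eIF4E binding to eIF4GI seen as loss of FRET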
Chain of Eukaryotic translation initiation factor 4E (P63073 whole entry): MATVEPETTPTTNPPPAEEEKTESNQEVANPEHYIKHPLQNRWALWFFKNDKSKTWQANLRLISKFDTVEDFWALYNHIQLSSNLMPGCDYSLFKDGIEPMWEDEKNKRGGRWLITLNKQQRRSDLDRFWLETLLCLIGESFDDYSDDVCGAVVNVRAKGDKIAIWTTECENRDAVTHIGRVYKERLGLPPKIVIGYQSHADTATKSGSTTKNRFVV

[10] = molecular target: T5, Voltage-gated N-type calcium channel alpha-1B subunit/Amyloid beta A4 precursor protein-binding family A member 1 (Homo sapiens, UniProt Q00975+Q02410); format: protein assay
T5 sequence (Q00975 whole entry): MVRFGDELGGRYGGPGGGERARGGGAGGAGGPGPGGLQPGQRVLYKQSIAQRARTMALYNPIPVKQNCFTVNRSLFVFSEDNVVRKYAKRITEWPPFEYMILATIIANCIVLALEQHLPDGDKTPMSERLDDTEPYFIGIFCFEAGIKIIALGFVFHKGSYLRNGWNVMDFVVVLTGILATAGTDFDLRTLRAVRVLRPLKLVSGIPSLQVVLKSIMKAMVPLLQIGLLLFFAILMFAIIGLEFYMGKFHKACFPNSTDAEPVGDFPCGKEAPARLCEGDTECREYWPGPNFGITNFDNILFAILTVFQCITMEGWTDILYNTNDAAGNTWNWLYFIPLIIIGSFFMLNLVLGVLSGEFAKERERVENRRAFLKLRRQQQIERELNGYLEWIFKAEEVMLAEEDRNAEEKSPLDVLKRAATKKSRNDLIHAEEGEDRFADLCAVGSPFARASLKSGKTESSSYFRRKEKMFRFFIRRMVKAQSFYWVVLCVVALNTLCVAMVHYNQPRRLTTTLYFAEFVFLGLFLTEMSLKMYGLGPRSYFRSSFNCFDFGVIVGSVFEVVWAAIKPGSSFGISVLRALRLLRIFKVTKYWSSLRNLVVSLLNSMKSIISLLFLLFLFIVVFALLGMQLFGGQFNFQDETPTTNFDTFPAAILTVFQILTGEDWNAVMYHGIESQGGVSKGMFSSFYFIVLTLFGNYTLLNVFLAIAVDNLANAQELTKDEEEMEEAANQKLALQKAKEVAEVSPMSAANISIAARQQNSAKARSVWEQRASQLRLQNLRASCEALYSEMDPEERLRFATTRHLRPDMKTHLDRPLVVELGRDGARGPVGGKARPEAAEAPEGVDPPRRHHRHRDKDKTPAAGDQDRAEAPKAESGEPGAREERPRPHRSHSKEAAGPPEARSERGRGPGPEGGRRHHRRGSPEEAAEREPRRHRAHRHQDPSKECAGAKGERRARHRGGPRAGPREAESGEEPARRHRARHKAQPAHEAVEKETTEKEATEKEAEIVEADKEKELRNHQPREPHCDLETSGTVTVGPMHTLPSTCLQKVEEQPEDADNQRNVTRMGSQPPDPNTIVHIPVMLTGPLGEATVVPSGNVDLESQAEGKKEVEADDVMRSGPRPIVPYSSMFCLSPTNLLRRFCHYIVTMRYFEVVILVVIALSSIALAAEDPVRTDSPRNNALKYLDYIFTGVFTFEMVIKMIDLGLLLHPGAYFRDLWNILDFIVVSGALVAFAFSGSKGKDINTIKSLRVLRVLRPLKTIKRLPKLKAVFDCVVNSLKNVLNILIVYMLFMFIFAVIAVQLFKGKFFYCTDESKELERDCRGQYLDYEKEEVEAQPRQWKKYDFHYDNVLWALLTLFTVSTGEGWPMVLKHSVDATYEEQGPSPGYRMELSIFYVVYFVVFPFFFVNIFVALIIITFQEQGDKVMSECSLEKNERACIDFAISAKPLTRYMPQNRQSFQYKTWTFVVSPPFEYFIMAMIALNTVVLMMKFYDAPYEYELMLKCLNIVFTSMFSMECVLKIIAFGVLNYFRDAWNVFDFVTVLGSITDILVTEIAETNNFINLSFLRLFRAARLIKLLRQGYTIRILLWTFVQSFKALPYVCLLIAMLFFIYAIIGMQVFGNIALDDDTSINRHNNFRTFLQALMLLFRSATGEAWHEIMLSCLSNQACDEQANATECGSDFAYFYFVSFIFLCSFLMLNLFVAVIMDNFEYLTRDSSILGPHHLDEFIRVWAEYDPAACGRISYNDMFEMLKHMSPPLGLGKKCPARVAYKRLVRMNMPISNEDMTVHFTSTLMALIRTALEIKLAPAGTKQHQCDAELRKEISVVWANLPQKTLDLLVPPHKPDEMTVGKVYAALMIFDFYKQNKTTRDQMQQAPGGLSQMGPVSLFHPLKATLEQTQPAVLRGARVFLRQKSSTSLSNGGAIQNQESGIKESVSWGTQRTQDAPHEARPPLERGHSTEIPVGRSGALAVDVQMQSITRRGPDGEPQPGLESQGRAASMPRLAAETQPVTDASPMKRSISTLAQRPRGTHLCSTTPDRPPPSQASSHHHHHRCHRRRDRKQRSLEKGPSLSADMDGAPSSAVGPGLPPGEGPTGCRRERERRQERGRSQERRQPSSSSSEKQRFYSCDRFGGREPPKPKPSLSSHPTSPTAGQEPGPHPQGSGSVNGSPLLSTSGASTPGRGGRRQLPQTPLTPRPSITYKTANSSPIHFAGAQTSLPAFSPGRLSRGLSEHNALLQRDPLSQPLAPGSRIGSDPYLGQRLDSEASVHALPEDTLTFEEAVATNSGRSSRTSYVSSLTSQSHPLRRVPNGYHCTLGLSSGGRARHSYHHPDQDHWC
T5 sequence (Q02410 whole entry): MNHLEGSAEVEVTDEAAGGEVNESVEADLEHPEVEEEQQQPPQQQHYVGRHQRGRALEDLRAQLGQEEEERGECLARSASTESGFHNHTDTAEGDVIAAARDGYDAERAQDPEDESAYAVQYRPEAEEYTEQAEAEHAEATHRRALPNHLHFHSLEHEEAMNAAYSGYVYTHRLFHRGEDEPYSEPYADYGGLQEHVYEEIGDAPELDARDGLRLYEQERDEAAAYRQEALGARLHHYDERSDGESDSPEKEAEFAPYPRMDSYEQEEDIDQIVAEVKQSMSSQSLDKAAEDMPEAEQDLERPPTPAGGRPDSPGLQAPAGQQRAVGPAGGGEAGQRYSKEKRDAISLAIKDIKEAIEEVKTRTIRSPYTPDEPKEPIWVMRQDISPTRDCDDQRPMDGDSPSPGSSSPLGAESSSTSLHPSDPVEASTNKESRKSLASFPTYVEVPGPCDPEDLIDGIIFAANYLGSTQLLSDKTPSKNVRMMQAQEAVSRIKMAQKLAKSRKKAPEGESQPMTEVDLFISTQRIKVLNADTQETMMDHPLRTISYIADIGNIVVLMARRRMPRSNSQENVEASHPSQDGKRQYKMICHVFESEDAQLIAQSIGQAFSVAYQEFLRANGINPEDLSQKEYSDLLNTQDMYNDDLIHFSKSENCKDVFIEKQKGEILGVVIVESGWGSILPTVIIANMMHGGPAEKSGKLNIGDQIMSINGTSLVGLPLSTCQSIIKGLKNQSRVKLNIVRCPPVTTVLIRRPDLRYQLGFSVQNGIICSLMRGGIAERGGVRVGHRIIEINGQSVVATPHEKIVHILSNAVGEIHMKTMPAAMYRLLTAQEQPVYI

[11] = molecular target: T5, Voltage-gated N-type calcium channel alpha-1B subunit/Amyloid beta A4 precursor protein-binding family A member 1; format: protein assay; remark: listed apart in the source
[12] = Luminescence Cell-Based Dose Confirmation HTS to Identify Inhibitors of Platelet Dense Granule Release. [Related pubchem assays: 1663 (Primary HTS), 1678 (Summary of Project)]; format: functional
[13] = molecular target: T6, Luciferin 4-monooxygenase (Photinus pyralis, UniProt P08659); experiment: firefly luciferase enzyme inhibitors, dose response, biochemical, luminescence (AID 1891)
T6 sequence (P08659 whole entry): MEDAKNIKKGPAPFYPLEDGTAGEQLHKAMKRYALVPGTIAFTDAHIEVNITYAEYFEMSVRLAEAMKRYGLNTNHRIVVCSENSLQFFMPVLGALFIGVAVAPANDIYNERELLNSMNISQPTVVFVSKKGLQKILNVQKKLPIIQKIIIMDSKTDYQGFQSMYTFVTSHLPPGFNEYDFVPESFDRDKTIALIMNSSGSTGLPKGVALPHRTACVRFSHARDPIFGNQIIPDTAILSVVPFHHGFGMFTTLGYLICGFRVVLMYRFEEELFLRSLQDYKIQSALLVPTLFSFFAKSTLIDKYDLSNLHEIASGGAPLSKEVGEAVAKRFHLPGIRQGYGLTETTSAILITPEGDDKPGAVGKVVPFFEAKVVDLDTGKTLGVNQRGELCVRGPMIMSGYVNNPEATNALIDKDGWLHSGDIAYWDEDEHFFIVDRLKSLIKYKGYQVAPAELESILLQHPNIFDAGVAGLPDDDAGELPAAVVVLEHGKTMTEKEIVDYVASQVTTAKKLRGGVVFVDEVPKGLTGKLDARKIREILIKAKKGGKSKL

[14] = molecular target: T7, Replicative DNA helicase DnaB (Mycobacterium tuberculosis, UniProt P9WMR3); experiment: DnaB intein splicing inhibitors, dose response, biochemical, cell-free fluorescence (AID 449749); format: functional
T7 sequence (P9WMR3 whole entry): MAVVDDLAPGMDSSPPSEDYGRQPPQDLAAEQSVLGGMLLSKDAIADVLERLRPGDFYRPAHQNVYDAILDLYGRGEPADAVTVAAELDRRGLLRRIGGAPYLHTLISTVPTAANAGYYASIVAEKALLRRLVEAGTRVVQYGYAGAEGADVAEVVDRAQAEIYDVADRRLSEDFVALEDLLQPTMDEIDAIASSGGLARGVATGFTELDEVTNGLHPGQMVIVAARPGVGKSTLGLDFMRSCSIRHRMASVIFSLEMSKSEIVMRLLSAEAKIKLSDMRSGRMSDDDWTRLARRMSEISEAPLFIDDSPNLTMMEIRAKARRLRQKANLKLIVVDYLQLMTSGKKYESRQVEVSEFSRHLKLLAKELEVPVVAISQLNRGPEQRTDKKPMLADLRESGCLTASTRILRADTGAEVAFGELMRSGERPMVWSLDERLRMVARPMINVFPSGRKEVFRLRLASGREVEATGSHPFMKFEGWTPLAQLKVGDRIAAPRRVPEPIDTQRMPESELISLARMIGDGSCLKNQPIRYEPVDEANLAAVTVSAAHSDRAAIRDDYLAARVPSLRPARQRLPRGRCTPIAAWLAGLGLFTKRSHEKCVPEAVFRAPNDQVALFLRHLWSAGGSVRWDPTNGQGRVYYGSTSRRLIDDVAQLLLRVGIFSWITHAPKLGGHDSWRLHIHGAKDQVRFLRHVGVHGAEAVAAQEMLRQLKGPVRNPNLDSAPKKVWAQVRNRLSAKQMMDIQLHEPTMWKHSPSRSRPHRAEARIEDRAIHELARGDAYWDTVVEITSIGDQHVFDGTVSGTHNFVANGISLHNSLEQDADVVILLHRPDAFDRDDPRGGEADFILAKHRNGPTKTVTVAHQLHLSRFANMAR

[15] = microbe, parasite or virus in culture; format: functional; details: Mycobacterium tuberculosis
[16] = Luminescence Cell-Based Dose Response HTS to Identify Inhibitors of 5'UTR Stem-Loop Driven Prion Protein mRNA Translation in H4 Neuroglioblastoma Cells. [Related pubchem assays: 1827 (Project Summary), 1813 (Primary HTS)]; format: functional
HT-1080 = experiment: cytotoxicity in HT1080 fibrosarcoma cells, cell-based, fluorescence readout (AID 620); format: functional; details: Homo sapiens
Protein RecA = molecular target: T8, Protein RecA (Mycobacterium tuberculosis, UniProt P9WHJ3); experiment: Fluorescence Cell-Free Homogeneous Dose Retest to Identify Inhibitors of RecA-Intein Splicing Activity. [Related pubchem assays (depositor defined):AID2097, AID2223, AID489010, AID492950]; format: functional
T8 sequence (P9WHJ3 whole entry): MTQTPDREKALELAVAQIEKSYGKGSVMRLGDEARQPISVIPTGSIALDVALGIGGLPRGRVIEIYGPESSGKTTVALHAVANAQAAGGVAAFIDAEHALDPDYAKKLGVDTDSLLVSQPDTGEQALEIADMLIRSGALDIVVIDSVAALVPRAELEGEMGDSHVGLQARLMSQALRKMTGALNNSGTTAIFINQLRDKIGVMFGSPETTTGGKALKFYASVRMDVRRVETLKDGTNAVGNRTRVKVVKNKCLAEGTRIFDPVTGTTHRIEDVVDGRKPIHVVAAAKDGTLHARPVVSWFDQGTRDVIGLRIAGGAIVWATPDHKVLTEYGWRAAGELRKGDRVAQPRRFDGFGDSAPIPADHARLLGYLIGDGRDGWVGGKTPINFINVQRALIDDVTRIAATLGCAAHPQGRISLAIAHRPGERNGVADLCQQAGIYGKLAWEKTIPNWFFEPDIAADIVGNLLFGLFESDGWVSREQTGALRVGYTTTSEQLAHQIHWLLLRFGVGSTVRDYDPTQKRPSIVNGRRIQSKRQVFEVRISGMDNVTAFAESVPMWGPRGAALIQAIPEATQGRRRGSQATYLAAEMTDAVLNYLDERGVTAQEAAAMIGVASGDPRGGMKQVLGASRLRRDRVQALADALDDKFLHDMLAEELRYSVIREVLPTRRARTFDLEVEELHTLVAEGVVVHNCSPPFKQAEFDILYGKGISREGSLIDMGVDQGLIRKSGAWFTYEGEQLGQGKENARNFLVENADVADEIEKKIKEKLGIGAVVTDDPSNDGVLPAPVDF

[17] = molecular target: T6, Luciferin 4-monooxygenase; experiment: Counter Screen for Luciferase-based Assay Positives. [Related pubchem assays: 620, 618, 411 ]
[18] = cytotoxicity toward NIH3T3 fibroblasts, dose response, counter-screen, cell-based, ATP luminescence, mouse fibroblasts (AID 2010); format: functional;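 note: cells exposed to compound for about 90 hours before reading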
[19] = inhibitors of intracellular T. cruzi replication, confirmation, NIH3T3 host cells, beta-gal luminescence (AID 2044); format: functional, cell-based;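 note: intracellular parasites grown in NIH/3T3 mouse fibroblasts as host cells; luminescent beta-galactosidase reporter signal from transgenic T. cruzi replicating inside host cells; inhibitors lower the luminescence signal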
[20] = molecular target: T1, Oxysterols receptor LXR-beta; format: functional, cell-based; remark: listed apart in the source

Fc1ccccc1-c1nc(-c2ccccc2)no1
EC50 [1]: > 67.5 µM (inactive)
EC50 (cells): > 67.5 µM (inactive)

CN1N=C(N)c2cn(C3OC(COP(=O)(O)O)C(O)C3O)c3ncnc1c23 (stereo not given)
GI50 (P388/ADR): 0.5 µM (active)
GI50 (SN12K1): 32.8 µM (inactive)
AC50 (Caspase-6): 29.6 µM (active)
IC50 [2]: > 66 µM (inactive)
IC50 [3]: > 66 µM (inactive)
GI50 (P388): 0.5 µM (active)

Cc1ccc(C(=O)C2CC2)c(C)c1
IC50 [4]: > 67.4 µM (inactive)
EC50 [5]: > 67.4 µM (inactive)

CCOC(=O)c1ccc(/N=c2\ssnc2Cl)cc1
IC50 [6]: 13.8 µM (active)
IC50 [7]: > 100 µM (inactive)
IC50 [8]: > 50 µM (not active)
IC50 [9]: 50 µM (inactive)
IC50 [10]: 11.5 µM (active)
IC50 [11]: 7.13 µM (active)

OC1=C(/C=N/c2ccc3c(c2)OCO3)CCc2ccccc21
EC50 [12]: 7.07 µM (active)
EC50 [13]: 0.871 µM (active)
AC50 [14]: > 380 µM (inactive)
CC50 [15]: > 40 µM (active)
EC50 [16]: 7.7 µM (active)
IC50 [8]: 0.829 µM (active)
EC50 (HT-1080): > 50 µM (not active)
EC50 (Protein RecA): 0.43 µM (active)
EC50 [17]: 2.31 µM (active)

CN1CCN(/C=N/c2sc3c(c2C#N)CCCCC3)CC1
EC50 [18]: > 60 µM (not active)
EC50 [12]: > 112 µM (not active)
EC50 [13]: > 112 µM (not active)
EC50 [19]: 1.01 µM (active)
EC50 [20]: > 67.5 µM (inactive)

Source: ChEMBL document CHEMBL1201862, “PubChem BioAssay data set” (2004)
